Source: patent US6541463B1, “Inhibitors of type 5 and type 3 17β-hydroxysteroid dehydrogenase and methods for their use” (Endorecherche, Inc., priority 1998, dated 2003)
Where two headings read alike, the source gives them in different places.

Columns and labels:
[1] = molecular target: T1, glucocorticoid receptor (Rattus norvegicus, UniProt P06536); experiment: Glucocorticoid receptor assay: inhibition of [3H]-dexamethasone binding, liver cytosol; conditions: for inhibition at 1 µM: read-out: % Inhibition Glucocorticold Receptor E^−6; for inhibition at 0.01 µM: read-out: % Inhibition Glucocorticold Receptor E^−8
T1 construct: from tissue; host or cells: liver cytosol of male Sprague-Dawley rats
T1 sequence (P06536 1-795): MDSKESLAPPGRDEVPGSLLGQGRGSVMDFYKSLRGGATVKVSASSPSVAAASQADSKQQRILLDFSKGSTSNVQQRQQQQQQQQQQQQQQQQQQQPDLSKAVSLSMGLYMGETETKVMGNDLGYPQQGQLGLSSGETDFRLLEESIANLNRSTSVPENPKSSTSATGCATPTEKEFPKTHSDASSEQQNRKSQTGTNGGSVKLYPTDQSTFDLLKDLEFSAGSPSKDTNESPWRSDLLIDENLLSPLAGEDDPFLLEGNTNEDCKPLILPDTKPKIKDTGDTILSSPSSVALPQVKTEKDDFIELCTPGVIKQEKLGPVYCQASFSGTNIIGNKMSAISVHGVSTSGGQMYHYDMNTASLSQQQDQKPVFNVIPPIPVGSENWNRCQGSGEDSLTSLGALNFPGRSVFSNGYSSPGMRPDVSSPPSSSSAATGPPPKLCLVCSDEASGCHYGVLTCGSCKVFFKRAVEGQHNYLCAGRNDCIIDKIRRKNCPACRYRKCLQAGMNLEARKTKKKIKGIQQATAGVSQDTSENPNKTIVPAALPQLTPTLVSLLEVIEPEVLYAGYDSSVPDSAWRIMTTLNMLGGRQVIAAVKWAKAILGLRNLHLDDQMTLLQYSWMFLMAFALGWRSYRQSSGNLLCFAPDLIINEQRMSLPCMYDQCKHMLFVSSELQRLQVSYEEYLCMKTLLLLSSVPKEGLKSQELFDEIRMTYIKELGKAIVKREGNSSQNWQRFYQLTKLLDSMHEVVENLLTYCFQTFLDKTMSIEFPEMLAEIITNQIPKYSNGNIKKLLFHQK
Procedure: The manner in which the percentage of inhibition is determined is described in “Other Tests; F-Glucocorticoid Receptor Assay”.
[6,7-^3H(N)]-Dexamethasone (39 Ci/mmol) was purchased from New England Nuclear (Lachine, Québec, Canada) while unlabeled dexametasone was obtained from Steraloids (Wilton, N.H.). All other chemicals were of analytical grade.
Stock solutions of the unlabeled steroids were kept at 4° C. in ethanol. The desired steroid solutions were then prepared by appropriate dilution in buffer B (10 mM Tris-HCl, 1.5 mM EDTA, 10 mM α-monothioglycerol, pH 7.4) containing 30% ethanol.
Male Sprague-Dawley rats weighing 200-300 g were obtained from Charles-River Inc. (St-Constant, Québec, Canada). The rats were killed by cervical dislocation and the liver were rapidly removed, dissected free from adhering tissue and frozen on dry-ice. Tissues were kept at −80° C. until use.
All procedures were performed at 4° C. Tissues were eminced and homogenized in 10 vol (w/v) of buffer A (25 mM Tris-HCl, 1.5 mM EDTA, 10 mM α-monothioglycerol, 10% glycerol, 10 mM sodium molybdate, pH 7.4) using a Polytron PT-10 homogenizer (Brinkmann Instruments, Canada) at a setting of 5 for two periods of 10 sec, with intervals of 10 sec for cooling. The homogenate was then centrifuged at 105,000×g for 90 min. The supernatant was used immediately for assay.
Glucocorticoid binding was measured using the dextran-coated charcoal adsorption technique. Incubations were performed at 0-4° C. for 16-18 h using 100 μl of cytosol, 100 μl of [^3H]-Dexamethasone (5 nM final) and 100 μl of unlabeled compounds at the indicated concentrations. Each concentration was done in triplicate. Assay was ended with 300 μl of DCC (2.5% Norit A and 0.25% Dextran T-70 in Buffer B). After 10 min of incubation, tubes were centrifuged at 2,000×g for 10 min. and decanted in vials with 6 ml of BCS liquid scintillation (New England Nuclear, Dupont). The radioactivity was measured in a Beckman counter at a counting efficiency of 35%.

[2] = test system: Shionogi mouse mammary carcinoma cells; experiment: Antiandrogenic activity: inhibition of DHT-induced proliferation of Shionogi cells; type: cell-based; conditions: for IC50: Mus musculus
Procedure: The manner in which the inhibition is determined is described in “Other Tests; B-Androgenic/Antiandrogenic Activity”. Lower numbers are desirable. ND means that a determination was not done.
Androgenic/antiandrogenic activity of some preferred compounds has been measured using the Shionogi mouse mammary carcinoma cells.
Minimal essential culture medium (MEM), non-essential amino acids, and fetal calf serum were purchased from Flow Laboratories. In order to remove endogenous steroids, serum was incubated overnight at 4° C. with 1% activated charcoal (Norit A, Fisher) and 0.1% Dextran T-70 (Pharmacia). A 2-h supplementary adsorption was performed at 25° C. in order to further remove protein-bound steroids. Serum was also inactivated by a 20-min incubation at 56° C.
5α-dihydrotestosterone (DHT) was obtained from Steraloids. The antiandrogen hydroxyflutamide (OH-FLU) was kindly supplied by Drs. T. L. Nagabuschan and R. Neri (Schering Corporation, Kenilworth, U.S.A.).
Shionogi male mice bearing androgen-sensitive mammary tumors were obtained from Drs. Keishi Matsumoto, Osaka, Japan, and Yvonne Lefebvre, Ottawa, Canada. For primary culture, tumors were excised and washed in ice-cold sterile 25 mM Hepes buffer (137 mM NaCl; 5 mM KCl; 0.7 mM Na2HPO4; 10 mM glucose, pH 7.2). After mincing with scissors, the tumor minces were digested for 2 h at 37° C. in Hepes buffer containing 3.8 mg/ml collagenase (Clostridium, Boehringer), 1.5 mg/ml hyaluronidase II (Sigma), and 3% bovine serum albumin fraction V (Schwartz-Mann). Dispersed cells were collected by centrifugation (500×g for 10 min), washed twice by suspension in minimal essential medium (MEM) containing 5% dextran-coated charcoal-treated fetal calf serum (DCC-FCS), 1% non-essential amino acids, 10 IU/ml penicillin, 50 μg/ml streptomycin, and 100 nM dihydrotestosterone (DHT) (Steraloids).
Cells were plated in the same medium at a density of 75 000 cells/ml in 75 cm^2 flasks under an atmosphere of 5% carbon dioxide in air at 37° C. The medium was changed weekly. The steroids and antisteroids were dissolved in ethanol and kept in stock solutions chosen to yield final ethanol concentrations less than 0.01% in the culture medium.
Cells were subcultured at near-confidence by gentle digestion in a solution of 0.1% pancreatin (Flow Laboratories) in Hepes buffer containing 3 mM ethylenediaminetetraacetic acid (EDTA) (pH 7.2). Cells were pelleted by centrifugation, resuspended in culture medium, counted in a Coulter counter, and replated as described above. Soft agar cloning was performed as described (Stanley et al., Cell 10: 35-44, 1977) in the presence of 100 nM DHT.
Cells were plated in 24-well plates at a density of 20 000 cells/well. The indicated increasing concentrations of agents were added to triplicate dishes, and cells were grown for 10-12 days with changes of medium every 3-4 days. Cell number was measured by direct counting in a Coulter counter.
ED50 values of action of DHT and glucocorticoids were calculated according to a least-square regression as described (Rodbard, Endocrinology 94: 1427-1431, 1974). Statistical significance was calculated according to a multiple-range test (Kramer, Biometrics 12: 307-310,1956).

[3] = Table 4′, DHT-induced proliferation, E^−6 (10^−6 M)
[4] = Table 4′, DHT-induced proliferation, E^−7

C[C@]12CCC3c4ccc(O)cc4CCC3C1CC[C@@]21CCCC(=O)O1 (stereo partly drawn) [EM-919, 1,3,5(10)-estratrien-3-ol-17(R)-spiro-2′(6′-oxo)tetrahydropyran]
% Inhibition Glucocorticold Receptor *E^−5 ([1]; Table 4′, starred values, E^−5): 33* %
% Inhibition Glucocorticold Receptor *E^−7 ([1]; Table 4′, starred values, E^−7): 0* %
IC50 ([2]; Table 4′, bracketed values, read-out: Antiandrogenic Activity Shionogi, DHT [IC50 (nM)]): 609 nM
Antiandrogenic Activity Shionogi, DHT E^−6 [2, 3]: −95%
Antiandrogenic Activity Shionogi, DHT E^−7 [2, 4]: +38%

COC(=O)CCCC(=O)O[C@]1(C(C)=O)CC[C@H]2[C@@H]3C=C(C)C4=CC(=O)CC[C@]4(C)[C@H]3CC[C@@]21C [EM-1007, 6-Methyl-4,6-pregnadien-17α-ol-3,20-dione 4′-Carbomethoxybutyrate]
% Inhibition Glucocorticoid Receptor ([1]; E^−6): 0%
% Inhibition Glucocorticoid Receptor ([1]; E^−8): 0%
Antiandrogenic Activity Shionogi, DHT ([2]; DHT, E^−6): −76
Antiandrogenic Activity Shionogi, DHT ([2]; DHT, E^−7): −14

CC1CCC2(CCC3C4CCc5ccccc5C4CCC32C)OC1=O (stereo not drawn) [EM-1025]
inhibition at 1 µM ([1]; Table 4′, E^−6): 0%
inhibition at 0.01 µM ([1]; Table 4′, E^−8): 0%
Antiandrogenic Activity Shionogi, DHT E^−6 [2, 3]: −25%
Antiandrogenic Activity Shionogi, DHT E^−7 [2, 4]: −14%

CCCC(=O)O[C@]1(C)C(=O)CCC2C3C=C(C)C4=CC(=O)CC[C@]4(C)C3CC[C@@]21C (stereo partly drawn) [EM-1078]
% Inhibition Glucocorticoid Receptor E^−6 ([1]; E^−6): 94%
% Inhibition Glucocorticoid Receptor E^−8 ([1]; E^−8): 20%
Antiandrogenic Activity Shionogi, DHT E^−6 ([2]; with DHT, E^−6): −72
Antiandrogenic Activity Shionogi, DHT E^−7 ([2]; with DHT, E^−7): −79

CCC[C@@H]1CC2C3C=CC4=CC(=O)CC[C@]4(C)C3CC[C@]2(C)C1=O (stereo partly drawn) [EM-1097]
% Inhibition Glucocorticoid Receptor E^−6 ([1]; E^−6): 0%
% Inhibition Glucocorticoid Receptor E^−8 ([1]; E^−8): 0%
Antiandrogenic Activity Shionogi, DHT E^−6 ([2]; with DHT, E^−6): −71
Antiandrogenic Activity Shionogi, DHT E^−7 ([2]; with DHT, E^−7): −3

CN1C(=O)C=C[C@]2(C)C3CC[C@@]4(C)C(CC[C@@]45CCCC(=O)O5)C3CCC12 (stereo partly drawn) [EM-1122-CS]
inhibition at 1 µM ([1]; Table 5 column 15, E^−6): 0%
inhibition at 0.01 µM ([1]; Table 5 column 15, E^−8): 0%
IC50 ([2]; Table 5, bracketed value, read-out: Antiandrogenic Activity Shlonogl, DHT [IC50 (nM)]): 447 nM
Antiandrogenic Activity Shlonogl, DHT E^−6 ([2]; Table 5, DHT, E^−6): −74%
Antiandrogenic Activity Shlonogl, DHT E^−7 ([2]; Table 5, DHT, E^−7): −14%

C[C@]12CCC3c4cc([N+](=O)[O-])c(O)cc4CCC3C1CC[C@@]21CCCC(=O)O1 (stereo partly drawn) [EM-1124, 2-Nitro-1,3,5(10)-estraetriene-3-ol-17(R)-spiro-2′-(6′-oxo)tetrahydropyran]
inhibition at 1 µM ([1]; Table 4′, E^−6): 1%
inhibition at 0.01 µM ([1]; Table 4′, E^−8): 1%
Antiandrogenic Activity Shionogi, DHT E^−6 [2, 3]: −65%
Antiandrogenic Activity Shionogi, DHT E^−7 [2, 4]: 0%

CC1(C)CCC2(CCC3C4CCc5cc(O)c([N+](=O)[O-])cc5C4CCC32C)OC1=O (stereo not drawn) [EM-1125-CS]
inhibition at 1 µM ([1]; Table 4′, E^−6): 1%
inhibition at 0.01 µM ([1]; Table 4′, E^−8): 0%
Antiandrogenic Activity Shionogi, DHT E^−6 [2, 3]: −43%
Antiandrogenic Activity Shionogi, DHT E^−7 [2, 4]: −30%

CC1CCC2(CCC3C4CCc5cc(O)c([N+](=O)[O-])cc5C4CCC32C)OC1=O [EM-1126, 2-Nitro-1,3,5(10)-estratrien-3-ol-17(R)-spiro-2′-(5′-methyl-6′-oxo)tetrahydropyran]
% Inhibition Glucocorticold Receptor E^−6 ([1]; Table 4′, E^−6): 0%
% Inhibition Glucocorticold Receptor E^−8 ([1]; Table 4′, E^−8): 0%
Antiandrogenic Activity Shionogi, DHT E^−6 [2, 3]: −49%
Antiandrogenic Activity Shionogi, DHT E^−7 [2, 4]: 0%

CC1CCC2(CCC3C4CCc5cc(O)c([N+](=O)[O-])cc5C4CCC32C)OC1=O [EM-1131, 2-Nitro-1,3,5(10)-estratrien-3-ol-17(R)-spiro-2′-(5′-methyl-6′-oxo)tetrahydropyran]
inhibition at 1 µM ([1]; Table 4′, E^−6): 0%
inhibition at 0.01 µM ([1]; Table 4′, E^−8): 0%
Antiandrogenic Activity Shionogi, DHT E^−6 [2, 3]: −47%
Antiandrogenic Activity Shionogi, DHT E^−7 [2, 4]: −15%

CC1(C)CC[C@@]2(CCC3C4CCc5cc(F)ccc5C4CC[C@@]32C)OC1=O (stereo partly drawn) [EM-1157-CS]
inhibition at 1 µM ([1]; Table 4′, E^−6): 0%
inhibition at 0.01 µM ([1]; Table 4′, E^−8): 1%
Antiandrogenic Activity Shionogi, DHT E^−6 [2, 3]: −19%
Antiandrogenic Activity Shionogi, DHT E^−7 [2, 4]: 0%

CC(=O)O[C@]1(C(=O)N(C)C)CCC2C3C=C(C)C4=CC(=O)CC[C@]4(C)C3CC[C@@]21C (stereo partly drawn) [EM-1159]
% Inhibition Glucocorticoid Receptor ([1]; E^−6): 59%
% Inhibition Glucocorticoid Receptor ([1]; E^−8): 8%
Antiandrogenic Activity Shionogi, DHT ([2]; DHT, E^−6): −71
Antiandrogenic Activity Shionogi, DHT ([2]; DHT, E^−7): 1

CCCCN(C)C(=O)[C@@]1(OC(C)=O)CCC2C3C=C(C)C4=CC(=O)CC[C@]4(C)C3CC[C@@]21C (stereo partly drawn) [EM-1165]
% Inhibition Glucocorticoid Receptor ([1]; E^−6): 26%
% Inhibition Glucocorticoid Receptor ([1]; E^−8): 0%
Antiandrogenic Activity Shionogi, DHT ([2]; DHT, E^−6): −102
Antiandrogenic Activity Shionogi, DHT ([2]; DHT, E^−7): −14
IC50 ([2]; read-out: Antiandrogenic Activity Shionogi, DHT [IC50]): 232 nM

CC12CCC3c4ccc(F)cc4CCC3C1CCC21CCCC(=O)O1 (stereo not drawn) [EM-1170-CS]
inhibition at 1 µM ([1]; Table 4′, E^−6): 3%
inhibition at 0.01 µM ([1]; Table 4′, E^−8): 4%
Antiandrogenic Activity Shionogi, DHT E^−6 [2, 3]: −38%
Antiandrogenic Activity Shionogi, DHT E^−7 [2, 4]: 15%

CCC[C@]1(F)CC2C3C=CC4=CC(=O)CC[C@]4(C)C3CC[C@]2(C)C1=O (stereo partly drawn) [EM-1183]
% Inhibition Glucocorticoid Receptor E^−6 ([1]; E^−6): 12%
% Inhibition Glucocorticoid Receptor E^−8 ([1]; E^−8): 0%
Antiandrogenic Activity Shionogi, DHT E^−6 ([2]; with DHT, E^−6): −51
Antiandrogenic Activity Shionogi, DHT E^−7 ([2]; with DHT, E^−7): 0
